{"source": "paper PMC10451632", "about": "“Site Mutation Improves the Expression and Antimicrobial Properties of Fungal Defense” (Antibiotics, 2023)", "key": {"[1]": {"experiment": "pH stability, MIC read-out", "assay_type": "physicochemical", "conditions": "pH from 2 to 10, buffers, 37 °C, 4 h, MIC read-out after dilution, triplicate", "description": "(§1) PN7 dissolved in physiological saline solution was prepared into mother liquor with a concentration of 1280 μg/mL and incubated at different temperatures for 1 h. PN7 was dissolved in different pH buffers at 37 °C for 4 h. After double gradient dilution, MIC assays were used to detect the change in antibacterial activity."}, "[2]": {"experiment": "Serum stability, MIC read-out", "assay_type": "in vitro ADME", "conditions": "25% or 50% mouse serum, 1280 μg/mL PN7, 37 °C, triplicate", "description": "(§2) The stability of peptide PN7 in SGF, SIF, and 25% or 50% mouse serum was carried out as previously described. A final concentration of 1280 μg/mL PN7 was prepared and incubated at 37 °C and then diluted twice. The MIC was determined."}, "[3]": {"experiment": "Stability in simulated gastric fluid, MIC read-out", "assay_type": "in vitro ADME", "description": "as §2"}, "[4]": {"tested_on": "Gram-negative bacteria such as Escherichia coli, Salmonella, and Pseudomonas aeruginosa", "experiment": "MIC against Gram-negative bacteria", "assay_type": "cell-based", "conditions": "Gram-negative bacteria (Table 6)", "description": "(§3) The MIC value of PN7 against bacteria was determined by the microtiter broth dilution method. Briefly, bacteria grown to the exponential phase were diluted into MHB; subsequently, 90 μL of bacterial suspension (10^5 CFUs/mL) was mixed with 10 μL of different concentrations of PN7 in a sterilized 96-well microtiter plate (Nunc). MIC values were recorded after incubation for 16–18 h at 37 °C based on the lowest concentrations of peptides in which no visible bacterial growth was observed."}, "[5]": {"experiment": "Thermal stability, MIC read-out", "assay_type": "physicochemical", "conditions": "1 h, 1280 μg/mL in physiological saline, triplicate", "description": "as §1"}, "[6]": {"tested_on": "S. aureus ATCC 43300", "experiment": "Time-killing curves", "assay_type": "cell-based, Staphylococcus aureus", "conditions": "for reduction of bacterial counts during the first two hours: initial inoculum 5.15 Log10 CFU/mL, MHB, 37 °C, 250 rpm, triplicate", "description": "S. aureus ATCC 43300 was cultured to the logarithmic stage, MHB medium was used for adjusting the concentration of bacterial suspension, and PN7 (1×, 2× and 4× MIC), Plectasin (1×, 2× and 4× MIC) and 2× MIC vancomycin (the MIC was 1 μg/mL) were added into the suspensions containing 10^5 CFU/mL bacteria (after the count of viable bacteria detection, the initial inoculation amount was 5.15 Log10 CFU/mL), cultured at 37 °C and 250 rpm. A 100 CFU/mL is considered the detection limit. […] In contrast, the count was reduced by 1.6 Log10 CFU/mL after treatment with 2× MIC vancomycin, an approximately 66% population decrease of target pathogens compared with the PN7 treatment group at the same time point of the second hour. After 4 h, the colony number of the peptide treatment group was almost 0, while that of the vancomycin treatment group was 0 after 8 h, at 4 h later than the PN7 treatment. At 24 h, the number of colonies of only 1× MIC Plectasin treatment group rebounded, while no such phenomenon occurred in the other treatment groups.\nS. aureus ATCC 43300 was cultured to the logarithmic stage. MHB medium adjusted the concentration of bacterial suspension, and PN7 (1×, 2× and 4× MIC) was added into the suspensions containing 10^5 CFU/mL bacteria, cultured at 37 °C and 250 rpm. 1×, 2×, 4× MIC Plectasin and 2× MIC vancomycin were used as positive controls, and the group treated without antibiotics was used as the blank controls. Then, 100 μL samples were taken at different time points and were continuously diluted and coated on MHA medium for colony counting. A 100 CFU/mL is considered the detection limit."}, "[7]": {"tested_on": "ICR mice", "experiment": "In vivo toxicity, intraperitoneal injection", "design": "species or system mouse", "description": "ICR mice (6–8 weeks old, male, n = 5 per group; Charles River, Beijing, China) were intraperitoneally injected with PN7 (10 mg/kg, body weight) for 6 days, and the changes in mice behavior and body weight were recorded. At the same time, blood and organ tissues were collected for whole-blood cell and biochemical index analysis and H.E. staining."}, "[8]": {"tested_on": "S. aureus ATCC 43300", "experiment": "Salt stability, MIC read-out", "assay_type": "cell-based, Staphylococcus aureus", "description": "The influence of ions on PN7 activity was determined in two ways.\nThe first method of operation: PN7 was prepared into 1280 μg/mL mother liquor supplemented with 50, 100, 200, 300, and 500 mM NaCl (or KCl, MgCl2, CaCl2), then was diluted twice gradient by ddH2O. Then, 10 μL was added into 90 μL bacterial solution and cultured for 16–18 h to determine the MIC.\nThe second method of operation: 10 μL peptide solution and 10 μL NaCl (or KCl, MgCl2, CaCl2) solution with different concentrations were added to 80 μL bacterial solution. The final concentration of ions in the whole system was 50, 100, 150, 200, and 250 mM. The MIC against S. aureus ATCC 43300 was determined."}, "[9]": {"tested_on": "human keratinocyte HaCaT", "experiment": "Cytotoxicity, MTT assay", "assay_type": "cell-based", "conditions": "HaCaT cells, at 128 mg/mL (so in the source)", "description": "(§4) The cytotoxicity of PN7 was evaluated by MTT (Beyotime, Shanghai, China) assay."}, "[10]": {"tested_on": "mouse macrophages RAW264.7", "experiment": "Cytotoxicity, MTT assay", "assay_type": "cell-based", "description": "as §4"}, "[11]": {"tested_on": "P. aeruginosa CICC 21630", "experiment": "MIC, microtiter broth dilution", "assay_type": "cell-based, Pseudomonas aeruginosa", "conditions": "MHB, 10^5 CFUs/mL, 16–18 h at 37 °C", "description": "as §3"}, "[12]": {"conditions": "10 mg/kg daily intraperitoneal injection for 6 days, n = 5 per group"}}, "note": "Entries after “also recorded” stand apart in the source; their conditions may differ. Bridge positions count the residues as written; N and C are the ends. Peptide text beside a SMILES is read from it.", "data": [{"smiles": "CC[C@H](C)[C@@H]1NC(=O)[C@H](CO)NC(=O)[C@H](CCCCN)NC(=O)[C@@H]2CSSC[C@@H](C(=O)N[C@@H](Cc3ccc(O)cc3)C(=O)O)NC(=O)[C@H](CCCCN)NC(=O)[C@@H]3CSSC[C@H](NC(=O)[C@H](CCCNC(=N)N)NC(=O)CNC(=O)[C@H](CC(=O)O)NC(=O)[C@H](CC(=O)O)NC(=O)[C@H](CCC(=O)O)NC(=O)[C@H](Cc4ccc(O)cc4)NC(=O)[C@H](Cc4c[nH]c5ccccc45)NC(=O)[C@@H]4CCCN4C(=O)CNC(=O)[C@H](CC(N)=O)NC(=O)[C@@H](NC(=O)CNC(=O)[C@H](Cc4ccccc4)NC(=O)CN)CSSC[C@H](NC(=O)[C@H](Cc4ccc(O)cc4)NC(=O)CNC(=O)CNC(=O)[C@H](CCCCN)NC(=O)[C@H](Cc4ccc(O)cc4)NC(=O)CNC(=O)[C@H](CCCCN)NC1=O)C(=O)N[C@@H](C)C(=O)N[C@@H](CCCCN)C(=O)NCC(=O)NCC(=O)N[C@@H](Cc1ccccc1)C(=O)N[C@@H](C(C)C)C(=O)N3)C(=O)N[C@@H](Cc1c[nH]cn1)C(=O)N[C@@H](CC(N)=O)C(=O)N[C@@H](Cc1c[nH]cn1)C(=O)N2", "note": "[PN7] (H-GFGCNGPWYEDDGRCHNHCKSIKGYKGGYCAKGGFVCKCY-OH; disulfide 4-30, 15-37, 19-39 (inferred); N-terminus and C-terminus assumed)", "values": [{"measurement": "pH stability (antibacterial activity)", "setting": "[1]", "value": "stable"}, {"measurement": "serum stability", "setting": "[2]", "value": "strong resistance to the serum effect; also recorded: stable in serum"}, {"measurement": "activity after incubation with simulated gastric juice (SGF)", "setting": "[3]; 1280 μg/mL PN7, 37 °C, then two-fold dilution, triplicate", "value": "conserved full activity"}, {"measurement": "resistance to pepsin", "setting": "[3]; Figure 7E", "value": "resistant to pepsin"}, {"measurement": "MIC", "setting": "[4]", "value": "over 128 μg/mL"}, {"measurement": "thermal stability (antibacterial activity)", "setting": "[5]; 20–80 °C", "value": "stable"}, {"measurement": "decrease of antibacterial activity", "setting": "[5]; 100 °C", "value": 1, "unit": "fold"}, {"measurement": "reduction of bacterial counts during the first two hours", "setting": "[6]; 1× MIC", "value": 2.25, "unit": "Log10 CFU/mL"}, {"measurement": "reduction of bacterial counts during the first two hours", "setting": "[6]; 2× MIC", "value": 2.42, "unit": "Log10 CFU/mL"}, {"measurement": "reduction of bacterial counts during the first two hours", "setting": "[6]; 4× MIC", "value": 2.72, "unit": "Log10 CFU/mL"}, {"measurement": "time to kill 99% of S. aureus ATCC 43300", "setting": "[6]; time-kill, 2× MIC", "value": "≤ 2", "unit": "h"}, {"measurement": "histological morphology of mouse organs (H&E)", "setting": "[7]; [12]", "value": "showed no difference"}, {"measurement": "murine behavior and body weight", "setting": "[7]; [12]", "value": "did not observe a change in murine behavior or the loss of body weight"}, {"measurement": "toxicity to mice, overall", "setting": "[7]; intraperitoneal injection for 6 d, observation 1 week", "value": "no toxicity; also recorded: no significant differences compared with the control group"}, {"measurement": "influence of monovalent cations (Na+ and K+) on activity", "setting": "[8]; NaCl or KCl, MIC against S. aureus ATCC 43300", "value": "no influence"}, {"measurement": "MIC value after incubation with different ions", "setting": "[8]; mother liquor with 50–500 mM salt, then diluted with ddH2O", "value": "did not change"}, {"measurement": "cell viability", "setting": "[9]", "value": 85.36, "unit": "%"}, {"measurement": "survival", "setting": "[10]; RAW264.7 and HaCaT cells (Figure 6B,C), 128 μg/mL", "value": "> 85", "unit": "%"}, {"measurement": "cell viability", "setting": "[10]; RAW264.7 cells, MTT, at 128 mg/mL (so in the source)", "value": 92.77, "unit": "%"}, {"measurement": "MIC", "setting": "[11]", "value": ">128", "unit": "µg/mL"}]}]}
